From patent US9521846B2, “Template-fixed peptidomimetics with antimicrobial activity” (priority 2006, dated 2016)
In brackets after ≈: the same amount, converted by molar mass. Non-standard residues stand in square brackets, D forms with d. Residues, ends and D or L forms follow the SMILES beside them. Ala(cPr) = N[C@@H](CC1CC1)C(=O)O; Chg = N[C@H](C(=O)O)C1CCCCC1; Nle = CCCC[C@H](N)C(=O)O; Dab = NCC[C@H](N)C(=O)O

Experiments:
[1] = system: P. aeruginosa ATCC 27853; type: cell-based, Pseudomonas aeruginosa; details: ATCC 27853
Procedure: (§1) The selective antimicrobial activities of the peptides were determined in 96-well plates (Nunclon polystyrene) by the standard NCCLS broth microdilution method (see ref 1, below) with slight modifications. Innocula of the microorganisms were diluted into Mueller-Hinton (MH) broth+0.02% BSA and compared with a 0.5 Mcfarland standard to give appr. 10^6 colony forming units (CFU)/ml. Aliquots (50 μl) of inoculate were added to 50 μl of MH broth+0.02% BSA containing the peptide in serial two-fold dilutions. The following microorganisms were used to determine antibiotic selectivity of the peptides: Escherichia coli (ATCC 25922), Pseudomonas aeruginosa (P. aeruginosa ATCC 27853, P8191900, P1021903, P1021913, IMP 1 Livermore 3140).

[2] = system: P. aeruginosa
[3] = system: HELA cells (Acc57); test: Cytotoxicity assay, MTT reduction (LC 50, GI 50); type: cell-based
Procedure: The cytotoxicity of the peptides to HELA cells (Acc57) and COS-7 cells (CRL-1651) was determined using the MIT reduction assay [see ref. 2 and 3, below]. Briefly the method was as follows: HELA cells and COS-7 cells were seeded at 7.0×10^3 and, respectively, 4.5×10^3 cells per well and grown in 96-well […] plates for 24 hours at 37° C. at 5% CO2. At this point, time zero (Tz) was determined by MTT reduction (see below). The supernatant of the remaining wells was discarded, and fresh medium and the peptides in serial dilutions of 12.5, 25 and 50 μM were dispensed into the wells. Each peptide concentration was assayed in triplicate. Incubation of the cells was continued for 48 hours at 37° C. at 5% CO2. Wells were then washed once with phosphate buffered saline (PBS) and subsequently 100 μl MIT reagent (0.5 mg/ml in medium RPMI1640 and, respectively, DMEM) were added to the wells. This was incubated at 37° C. for 2 hours and subsequently the medium was aspirated and 100 μl isopropanol were added to each well. The absorbance at 595 nm of the solubilized product was measured (OD595peptide). For each concentration averages were calculated from triplicates. The percentage of growth was calculated as follows: (OD595peptide-OD595Tz-OD595Empty well)/(OD595Tz-OD595Empty well)×100% and was plotted for each peptide concentration.
The LC 50 values (Lethal Concentration, defined as the concentration that kills 50% of the cells) were determined for each peptide by using the trend line function of EXCEL (Microsoft Office 2000) for the concentrations (50, 25, 12.5 and 0 μM), the corresponding growth percentages and the value −50, (=TREND(C50:C0,%50:%0,−50)). The GI 50 (Growth Inhibition) concentrations were calculated for each peptide by using a trend line function for the concentrations (50, 25, 12.5 and 0 […]), the corresponding percentages and the value 50, (=TREND (C50:C0,%50:%0,50).

[4] = system: Pseudomonas aeruginosa P1021903; type: cell-based; details: P1021903
Procedure: as §1

[5] = system: Pseudomonas aeruginosa P1021913; type: cell-based; details: P1021913
Procedure: as §1

[6] = system: Pseudomonas aeruginosa IMP 1 Livermore 3140; type: cell-based; details: IMP 1 Livermore 3140
Procedure: as §1

[7] = system: Pseudomonas aeruginosa P8191900; type: cell-based; details: P8191900
Procedure: as §1

[8] = system: human red blood cells (hRBC); test: Hemolysis; type: cell-based; details: 100
Procedure: Hemolysis of red blood cells is often employed for assessment of toxicity of related compounds such as protegrin or tachyplesin. Values are given as %-lysis of red blood cells observed at a concentration of 100 μg/ml. Typical values determined for cationic peptides such as protegrin and tachyplesin range between 30-40% with average MIC-values of 1-5 μg/ml over a wide range of pathogens.
The peptides were tested for their hemolytic activity against human red blood cells (hRBC). Fresh hRBC were washed three times with phosphate buffered saline (PBS) by centrifugation for 10 min at 2000×g. Peptides at a concentration of 100 μM were incubated with 20% v/v hRBC for 1 hour at 37° C. The final erythrocyte concentration was approximately 0.9×10^9 cells per ml. A value of 0% and, respectively, 100% cell lysis was determined by incubation of the hRBC in the presence of PBS alone and, respectively, 0.1% Triton X-100 in H2O. The samples were centrifuged, the supernatant was 20-fold diluted in PBS buffer and the optical density (OD) of the sample at […] was measured. The 100% lysis value (OD540H20) gave an OD540 of approximately 1.3-1.8. Percent hemolysis was calculated as follows: (OD540peptide/OD540H20)×100%.

Row | MIC P. aeruginosa ATCC 27853 [1] | Average MIC [2] | MIC P. aeruginosa P1021903 [4] | MIC P. aeruginosa P1021913 [5] | MIC P. aeruginosa IMP1 Livermore 3140 [6] | MIC P. aeruginosa P8191900 [7] | Structure (SMILES) | Cytotoxicity GI50 Hela cells [3] | Hemolysis at 100 μg/ml [8]
1 | 0.05 µg/mL (≈ 0.0311 µM) | 0.25 µg/mL | 0.29 µg/mL (≈ 0.18 µM) | 0.31 µg/mL (≈ 0.193 µM) | 0.43 µg/mL (≈ 0.268 µM) | 0.18 µg/mL (≈ 0.112 µM) | C[C@@H]1NC(=O)[C@H](CCN)NC(=O)[C@H](CCN)NC(=O)[C@H](Cc2c[nH]c3ccccc23)NC(=O)[C@H](CCN)NC(=O)[C@H](CCN)NC(=O)[C@H](CCCCN)NC(=O)[C@H](CCN)NC(=O)[C@H](C2CCCCC2)NC(=O)[C@H](Cc2c[nH]c3ccccc23)NC(=O)[C@H]([C@@H](C)O)NC(=O)[C@@H]2CCCN2C(=O)[C@H]2CCCN2C(=O)[C@H](CCN)NC1=O [Example 33] (cyclo(TW[Chg][Dab]K[Dab][Dab]W[Dab][Dab]A[Dab][dP]P)) | 50 µM | 0.1%
2 | 1.00 µg/mL (≈ 0.645 µM) | >1 µg/mL | 1.50 µg/mL (≈ 0.967 µM) | 1.25 µg/mL (≈ 0.806 µM) | >2 µg/mL | 1.00 µg/mL (≈ 0.645 µM) | CC[C@H](C)[C@@H]1NC(=O)[C@H](Cc2c[nH]c3ccccc23)NC(=O)[C@H](C)NC(=O)[C@@H]2CCCN2C(=O)[C@H]2CCCN2C(=O)[C@H](CCN)NC(=O)[C@H](C(C)C)NC(=O)[C@H](CCN)NC(=O)[C@H](CCN)NC(=O)[C@H](Cc2c[nH]c3ccccc23)NC(=O)[C@H](CCN)NC(=O)[C@H](CCN)NC(=O)[C@H](CCN)NC(=O)[C@H](CCN)NC1=O [Example 23] (cyclo(AWI[Dab][Dab][Dab][Dab]W[Dab][Dab]V[Dab][dP]P)) | 13 µM | 0.5%
3 | 0.06 µg/mL (≈ 0.037 µM) | 0.42 µg/mL | 0.31 µg/mL (≈ 0.191 µM) | 0.37 µg/mL (≈ 0.228 µM) | 1.17 µg/mL (≈ 0.722 µM) | 0.18 µg/mL (≈ 0.111 µM) | CC[C@H](C)[C@@H]1NC(=O)[C@H](Cc2c[nH]c3ccccc23)NC(=O)[C@H]([C@@H](C)O)NC(=O)[C@@H]2CCCN2C(=O)[C@H]2CCCN2C(=O)[C@H](CCN)NC(=O)[C@H](CC2CC2)NC(=O)[C@H](CCN)NC(=O)[C@H](CCN)NC(=O)[C@H](Cc2c[nH]c3ccccc23)NC(=O)[C@H](CCN)NC(=O)[C@H](CCN)NC(=O)[C@H](CCCCN)NC(=O)[C@H](CCN)NC1=O [Example 37] (cyclo(TWI[Dab]K[Dab][Dab]W[Dab][Dab][Ala(cPr)][Dab][dP]P)) | 50 µM | 0.5%
4 | 0.21 µg/mL (≈ 0.129 µM) | >1 µg/mL | 0.31 µg/mL (≈ 0.191 µM) | 0.65 µg/mL (≈ 0.4 µM) | >2 µg/mL | 0.40 µg/mL (≈ 0.246 µM) | CC[C@H](C)[C@@H]1NC(=O)[C@H](Cc2c[nH]c3ccccc23)NC(=O)[C@H]([C@@H](C)O)NC(=O)[C@@H]2CCCN2C(=O)[C@H]2CCCN2C(=O)[C@H](CCN)NC(=O)[C@H](CC(=O)O)NC(=O)[C@H](CCN)NC(=O)[C@H](CCN)NC(=O)[C@H](Cc2c[nH]c3ccccc23)NC(=O)[C@H](CCN)NC(=O)[C@H](CCN)NC(=O)[C@H](CCCCN)NC(=O)[C@H](CCN)NC1=O [Example 14] (cyclo(TWI[Dab]K[Dab][Dab]W[Dab][Dab]D[Dab][dP]P)) | 12 µM | 0.3%
5 | 0.09 µg/mL (≈ 0.0554 µM) | 0.35 µg/mL | 0.17 µg/mL (≈ 0.105 µM) | 0.27 µg/mL (≈ 0.166 µM) | 1.06 µg/mL (≈ 0.653 µM) | 0.17 µg/mL (≈ 0.105 µM) | CC[C@H](C)[C@@H]1NC(=O)[C@H](Cc2c[nH]c3ccccc23)NC(=O)[C@H]([C@@H](C)O)NC(=O)[C@@H]2CCCN2C(=O)[C@H]2CCCN2C(=O)[C@H](CCN)NC(=O)[C@H](CC(N)=O)NC(=O)[C@H](CCN)NC(=O)[C@H](CCN)NC(=O)[C@H](Cc2c[nH]c3ccccc23)NC(=O)[C@H](CCN)NC(=O)[C@H](CCN)NC(=O)[C@H](CCCCN)NC(=O)[C@H](CCN)NC1=O [Example 38] (cyclo(TWI[Dab]K[Dab][Dab]W[Dab][Dab]N[Dab][dP]P)) | 50 µM | 0.5%
6 | 0.09 µg/mL (≈ 0.0569 µM) | 0.6 µg/mL | 0.30 µg/mL (≈ 0.19 µM) | 0.31 µg/mL (≈ 0.196 µM) | 2.0 µg/mL (≈ 1.27 µM) | 0.30 µg/mL (≈ 0.19 µM) | CC[C@H](C)[C@@H]1NC(=O)[C@H](Cc2c[nH]c3ccccc23)NC(=O)[C@H]([C@@H](C)O)NC(=O)[C@@H]2CCCN2C(=O)[C@H]2CCCN2C(=O)[C@H](CCN)NC(=O)[C@@H](C)NC(=O)[C@H](CCN)NC(=O)[C@H](CCN)NC(=O)[C@H](Cc2c[nH]c3ccccc23)NC(=O)[C@H](CCN)NC(=O)[C@H](CCN)NC(=O)[C@H](CCCCN)NC(=O)[C@H](CCN)NC1=O [Example 3] (cyclo(TWI[Dab]K[Dab][Dab]W[Dab][Dab][dA][Dab][dP]P)) | 34 µM | 0.6%
7 | 0.13 µg/mL (≈ 0.0801 µM) | >1 µg/mL | 1.50 µg/mL (≈ 0.924 µM) | 0.65 µg/mL (≈ 0.4 µM) | >2 µg/mL | 0.50 µg/mL (≈ 0.308 µM) | CC[C@H](C)[C@@H]1NC(=O)[C@H](Cc2c[nH]c3ccccc23)NC(=O)[C@H]([C@@H](C)O)NC(=O)[C@@H]2CCCN2C(=O)[C@H]2CCCN2C(=O)[C@H](CCN)NC(=O)[C@H](CC(C)C)NC(=O)[C@H](CCN)NC(=O)[C@H](CCN)NC(=O)[C@H](Cc2c[nH]c3ccccc23)NC(=O)[C@H](CCN)NC(=O)[C@H](CCN)NC(=O)[C@H](CCCCN)NC(=O)[C@H](CCN)NC1=O [Example 7] (cyclo(TWI[Dab]K[Dab][Dab]W[Dab][Dab]L[Dab][dP]P)) | 13 µM | 0.8%
8 | 0.03 µg/mL (≈ 0.019 µM) | 0.20 µg/mL | 0.40 µg/mL (≈ 0.253 µM) | 0.16 µg/mL (≈ 0.101 µM) | 0.24 µg/mL (≈ 0.152 µM) | 0.16 µg/mL (≈ 0.101 µM) | CCCC[C@@H]1NC(=O)[C@H](Cc2c[nH]c3ccccc23)NC(=O)[C@H]([C@@H](C)O)NC(=O)[C@@H]2CCCN2C(=O)[C@H]2CCCN2C(=O)[C@H](CCN)NC(=O)[C@H](C)NC(=O)[C@H](CCN)NC(=O)[C@H](CCN)NC(=O)[C@H](Cc2c[nH]c3ccccc23)NC(=O)[C@H](CCN)NC(=O)[C@H](CCN)NC(=O)[C@H](CCCCN)NC(=O)[C@H](CCN)NC1=O [Example 31] (cyclo(TW[Nle][Dab]K[Dab][Dab]W[Dab][Dab]A[Dab][dP]P)) | 50 µM | 0.5%
